pEC50: −log10 of the molar value.
Target: T1, human FXR (NR1H4) (Homo sapiens, UniProt Q96RI1)
T1 construct: host or cells: CHO (Chinese hamster ovary) reporter cells
T1 sequence (Q96RI1 1-486): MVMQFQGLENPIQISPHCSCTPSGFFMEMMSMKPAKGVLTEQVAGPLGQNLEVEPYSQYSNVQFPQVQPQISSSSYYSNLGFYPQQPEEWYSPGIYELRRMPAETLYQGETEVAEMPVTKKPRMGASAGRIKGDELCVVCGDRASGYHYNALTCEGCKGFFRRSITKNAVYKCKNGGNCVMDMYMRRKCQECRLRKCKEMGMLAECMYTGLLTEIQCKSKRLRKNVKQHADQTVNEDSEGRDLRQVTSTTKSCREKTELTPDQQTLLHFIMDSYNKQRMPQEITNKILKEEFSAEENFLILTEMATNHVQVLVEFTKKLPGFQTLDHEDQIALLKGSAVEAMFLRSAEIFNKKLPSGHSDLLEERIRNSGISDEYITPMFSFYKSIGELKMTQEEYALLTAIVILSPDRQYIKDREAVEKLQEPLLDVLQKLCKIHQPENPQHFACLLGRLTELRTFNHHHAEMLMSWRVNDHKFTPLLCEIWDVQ
Assay: Human FXR (NR1H4) Assay (Gal4 promoter driven luciferase reporter, CHO cells)
Type: cell-based
Conditions: for pEC50: FXR reporter assay in CHO cells expressing human NR1H4, 22 hours incubation, potency ranges; for Efficacy (%): normalized to CDCA set as 100%, FXR reporter assay in CHO cells
Description: Human FXR (NR1H4) Assay Determination of a ligand mediated Gal4 promoter driven transactivation to quantify ligand binding mediated activation of FXR. FXR Reporter Assay kit purchased from Indigo Bioscience (Catalogue number: IB00601) to determine the potency and efficacy of compound developed by Enanta that can induce FXR activation. The principle application of this reporter assay system is to quantify functional activity of human FXR. The assay utilizes non-human mammalian cells, CHO (Chinese hamster ovary) cells engineered to express human NR1H4 protein (referred to as FXR). Reporter cells also incorporate the cDNA encoding beetle luciferase which catalyzes the substrates and yields photon emission. Luminescence intensity of the reaction is quantified using a plate-reading luminometer, Envision. Reporter Cells include the luciferase reporter gene functionally linked to an FXR responsive promoter. Thus, quantifying changes in luciferase expression in the treated reporter cells provides a sensitive surrogate measure of the changes in FXR activity. […] The assay is according to the manufacturer's instructions. In brief, the assay was performed in white, 96 well plates using final volume of 100 ul containing cells with different doses of compounds. Retrieve Reporter Cells from −80° C. storage. Perform a rapid thaw of the frozen cells by transferring a 10 ml volume of 37° C. cell recovery medium into the tube of frozen cells. Recap the tube of Reporter Cells and immediately place it in a 37° C. water bath for 5-10 minutes. Retrieve the tube of Reporter Cell Suspension from the water bath. Sanitize the outside surface of the tube with a 70% alcohol swab, and then transfer it into the cell culture hood. Dispense 90 μl of cell suspension into each well of the 96-well Assay Plate. Transfer the plate into 37° C. incubator, allowing the cells adherent to the bottom of the well. Dilute compounds in Dilution Plate (DP), and administrate to cells at Assay Plate (AP). DMSO content of the samples was kept at 0.2%. Cells were incubated for additional 22 hours before luciferase activities were measured. Thirty minutes before intending to quantify FXR activity, remove Detection Substrate and Detection Buffer from the refrigerator and place them in a low-light area so that they may equilibrate to room temperature. Remove the plate's lid and discard all media contents by ejecting it into an appropriate waste container. Gently tap the inverted plate onto a clean absorbent paper towel to remove residual droplets. Cells will remain tightly adhered to well bottoms. Add 100 μl of luciferase detection reagent to each well of the assay plate. Allow the assay plate to rest at room temperature for at least 5 minutes following the addition of LDR. Set the instrument (Envision) to perform a single 5 second “plate shake” prior to reading the first assay well. Read time may be 0.5 second (500 mSec) per well.

SMILES | pEC50 | Efficacy (%)
O=C(O)c1ccc2nc(N3CCC(OCc4c(-c5c(Cl)cccc5Cl)noc4C4CC4)CC3)sc2c1 [Compound (1), reference compound] | > 7.00 | 304
O=C(NS(=O)(=O)C1CC1)c1ccc2nc(N3CCC(OCc4c(-c5c(Cl)cccc5Cl)noc4C4CC4)CC3)sc2c1 [Example 11] | 6.00 to 7.00 | 122
CN(C)S(=O)(=O)NC(=O)c1ccc2nc(N3CCC(OCc4c(-c5c(Cl)cccc5Cl)noc4C4CC4)CC3)sc2c1 [Example 26] | > 7.00 | 129
